# Test results reported in patent US10709678B2, “Methods of reducing risk of cardiovascular disease” (NEUROBO PHARMACEUTICALS, INC., priority 2012, dated 2020).
# Read-outs that look alike come from different tables or passages of the source.
# Columns and labels:
# LDL-C [1] = settings: lovastatin 40 mg twice daily; cited from earlier work
# LDL-C [2] = settings: monotherapy, ezetimibe 10 mg; cited from earlier work
# [3] = tested on: hypercholesterolemic patients; test: 8-week double-blind placebo-controlled phase 2 study of gemcabene added to a stable statin dose: LDL-C; assay type: in vivo, human; settings: on stable statin, placebo reduction 7.9%, p<0.01
# Experimental: An 8-week, double-blind, placebo-controlled, randomized, multicenter, phase 2 study in hypercholesterolemic patients on a stable dose of statin (on statin therapy for at least the previous 3 months) was conducted to evaluate the efficacy of gemcabene in the further reduction of LDL-C in these patients.
# A total of 66 hypercholesterolemic patients were treated in this study: 22 randomized to gemcabene 900 mg, 20 randomized to gemcabene 300 mg, and 24 randomized to placebo.
# Patients included in the study were men and women ≥18 and ≤65 years of age with hypercholesterolemia and an LDL-C level at screening of ≥130 mg/dL while on a stable (3-months) dose of a statin. Patients were required to maintain their current dose of statin throughout the course of the study. […]
# Percent change from base line was calculated as follows: Percent Change From Baseline=[(final value−baseline value)/baseline value]×100%. […]
# [4] = tested on: hypercholesterolemic patients; test: Framingham Risk Score, baseline vs week 8, in the same phase 2 study; assay type: in vivo, human; settings: 300 mg and 900 mg QD
# Experimental: As used herein, references to 10-year risk are calculated using the Framingham point scores as provided in Tables 1 and 2, for men and women respectively. The patients' Framingham Risk Score was calculated at baseline. The Framingham risk score calculation takes into account: age, gender, systolic blood pressure level (+/−treatment), HDL cholesterol level, and smoker status. […] Significance was determined using the SAS Proc Univariate which provides p values from the student's paired t-test and the Wilcoxon Signed Rank test.
# LDL-C [5] = settings: cited from earlier work
# obese female Zucker rats = settings: cited from earlier work
smiles,measurement,setting,value
CC[C@H](C)C(=O)O[C@H]1C[C@@H](C)C=C2C=C[C@H](C)[C@H](CC[C@@H]3C[C@@H](O)CC(=O)O3)[C@H]21 [lovastatin],LDL-C lowered,LDL-C [1],35.5%
O=C1[C@H](CC[C@H](O)c2ccc(F)cc2)[C@@H](c2ccc(O)cc2)N1c1ccc(F)cc1 [ezetimibe],LDL-C lowered,LDL-C [2],16%
"CC(C)(CCCCOCCCCC(C)(C)C(=O)O)C(=O)O [gemcabene, 6,6′-oxybis-(2,2′-dimethylhexanoic acid)]","LDL-C lowered from baseline at Week 8, median",[3]; 300 mg per day,24.8%
same,"LDL-C lowered from baseline at Week 8, median",[3]; 900 mg per day,31.0%
same,Framingham Risk Score compared with statin treatment alone,[4],significantly reduced
same,decrease in LDL-C beyond atorvastatin monotherapy,"LDL-C [5]; 300 mg gemcabene with atorvastatin (aggregated over 10, 40 and 80 mg)",3.8%
same,decrease in LDL-C beyond atorvastatin monotherapy,"LDL-C [5]; 600 mg gemcabene with atorvastatin (aggregated over 10, 40 and 80 mg)",6.1%
same,decrease in LDL-C beyond atorvastatin monotherapy,"LDL-C [5]; 900 mg gemcabene with atorvastatin (aggregated over 10, 40 and 80 mg)",7.4%
CC(C)(CCCCCC(O)CCCCCC(C)(C)C(=O)O)C(=O)O [ESP 55016],HDL-C,obese female Zucker rats,raising
same,non-HDL-C,obese female Zucker rats,effective in lowering
same,triglyceride levels,obese female Zucker rats,decreasing
